Where a name gives a salt, the structure may show the parent alone. One block for each compound: values may come before it.
Experiments:
[1] = biological target: 5-hydroxytryptamine receptor 2A (Homo sapiens, UniProt P28223); test: (§1) PDSP Secondary Binding target: HTR2A - Compounds are tested at 10 uM concentration, plate are incubated at room temperature in the dark for 90 minutes. Reaction are stopped by vacuum filtration onto 0.3% polyethyleneimine soaked filter mats using Filtermate harvester. Scintillation cocktail is then melted onto microwave-dried filters on a hot plate and the radio activity is counted in Microbia counter.
[2] = biological target: Sigma non-opioid intracellular receptor 1 (Homo sapiens, UniProt Q99720); test: as §1, with “SIGMAR1” for “HTR2A”
Histamine H1 receptor = Histamine H1 receptor (Homo sapiens, UniProt P35367); test: as §1, with “HRH1” for “HTR2A”
Mu-type opioid receptor = Mu-type opioid receptor (Homo sapiens, UniProt P35372); test: as §1, with “OPRM1” for “HTR2A”
[3] = biological target: Kappa-type opioid receptor (Homo sapiens, UniProt P41145); test: as §1, with “OPRK1” for “HTR2A”
[4] = biological target: Sodium-dependent dopamine transporter (Homo sapiens, UniProt Q01959); test: as §1, with “SLC6A3” for “HTR2A”
[5] = biological target: T1, Muscarinic acetylcholine receptor M5 (Homo sapiens, UniProt P08912); test: as §1, with “CHRM5” for “HTR2A”
T1 sequence (P08912 whole entry): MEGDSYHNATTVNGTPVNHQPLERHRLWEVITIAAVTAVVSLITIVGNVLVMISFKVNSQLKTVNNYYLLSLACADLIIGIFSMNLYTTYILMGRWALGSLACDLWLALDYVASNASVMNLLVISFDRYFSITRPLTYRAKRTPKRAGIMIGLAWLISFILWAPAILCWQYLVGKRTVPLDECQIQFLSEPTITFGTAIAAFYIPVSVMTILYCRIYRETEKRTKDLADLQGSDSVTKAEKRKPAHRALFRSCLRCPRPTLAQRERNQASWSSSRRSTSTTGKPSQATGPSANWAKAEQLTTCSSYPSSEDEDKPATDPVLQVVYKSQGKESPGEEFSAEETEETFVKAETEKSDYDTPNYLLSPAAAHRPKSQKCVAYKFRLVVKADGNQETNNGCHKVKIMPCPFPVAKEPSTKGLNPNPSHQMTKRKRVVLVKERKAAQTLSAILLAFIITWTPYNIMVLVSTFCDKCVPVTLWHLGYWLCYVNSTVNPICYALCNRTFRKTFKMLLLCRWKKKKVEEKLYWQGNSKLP

D(4) dopamine receptor = biological target: T2, D(4) dopamine receptor (Homo sapiens, UniProt P21917); test: as §1, with “DRD4” for “HTR2A”
T2 sequence (P21917 whole entry): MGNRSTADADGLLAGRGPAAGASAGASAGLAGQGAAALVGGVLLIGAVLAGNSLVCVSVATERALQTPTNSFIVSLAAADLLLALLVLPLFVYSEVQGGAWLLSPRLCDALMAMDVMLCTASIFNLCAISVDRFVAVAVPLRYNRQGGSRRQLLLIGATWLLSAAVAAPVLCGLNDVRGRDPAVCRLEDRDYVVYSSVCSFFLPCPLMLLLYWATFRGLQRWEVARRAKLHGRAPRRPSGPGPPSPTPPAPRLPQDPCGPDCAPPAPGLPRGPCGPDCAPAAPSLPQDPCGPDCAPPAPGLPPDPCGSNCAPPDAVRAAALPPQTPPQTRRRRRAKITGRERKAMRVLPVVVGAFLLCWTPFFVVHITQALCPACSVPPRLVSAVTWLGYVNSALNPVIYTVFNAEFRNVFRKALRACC

D(3) dopamine receptor = D(3) dopamine receptor (Homo sapiens, UniProt P35462); test: as §1, with “DRD3” for “HTR2A”
[6] = biological target: T3, Alpha-2C adrenergic receptor (Homo sapiens, UniProt P18825); test: as §1, with “ADRA2C” for “HTR2A”
T3 sequence (P18825 whole entry): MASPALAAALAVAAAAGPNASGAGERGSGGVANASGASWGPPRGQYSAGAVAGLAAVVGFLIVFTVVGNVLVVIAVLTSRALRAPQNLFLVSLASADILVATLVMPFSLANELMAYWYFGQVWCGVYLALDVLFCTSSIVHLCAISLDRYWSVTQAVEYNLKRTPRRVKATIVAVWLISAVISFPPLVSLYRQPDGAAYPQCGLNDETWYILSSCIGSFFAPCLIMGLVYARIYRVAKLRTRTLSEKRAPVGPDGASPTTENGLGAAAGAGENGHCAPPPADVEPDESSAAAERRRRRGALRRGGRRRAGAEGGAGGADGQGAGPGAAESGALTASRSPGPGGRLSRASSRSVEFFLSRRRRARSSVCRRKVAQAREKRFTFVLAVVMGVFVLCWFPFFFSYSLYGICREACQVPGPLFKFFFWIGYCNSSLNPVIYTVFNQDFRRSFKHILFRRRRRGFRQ

[7] = biological target: 5-hydroxytryptamine receptor 7 (Homo sapiens, UniProt P34969); test: as §1, with “HTR7” for “HTR2A”
[8] = biological target: T4, 5-hydroxytryptamine receptor 2C (Homo sapiens, UniProt P28335); test: as §1, with “HTR2C” for “HTR2A”
T4 sequence (P28335 whole entry): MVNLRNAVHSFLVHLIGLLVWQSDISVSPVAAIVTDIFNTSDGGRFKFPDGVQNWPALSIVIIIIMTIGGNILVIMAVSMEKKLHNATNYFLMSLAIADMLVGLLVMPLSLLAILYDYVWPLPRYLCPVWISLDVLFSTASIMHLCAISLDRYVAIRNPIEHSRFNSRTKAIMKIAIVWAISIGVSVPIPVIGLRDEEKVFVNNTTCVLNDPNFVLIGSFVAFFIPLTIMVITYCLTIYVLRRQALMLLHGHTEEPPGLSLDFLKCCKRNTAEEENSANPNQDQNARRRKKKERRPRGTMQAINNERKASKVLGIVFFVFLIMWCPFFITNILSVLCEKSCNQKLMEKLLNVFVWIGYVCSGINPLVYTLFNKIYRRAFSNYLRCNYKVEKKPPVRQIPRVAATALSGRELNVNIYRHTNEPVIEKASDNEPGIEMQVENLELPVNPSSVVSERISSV

Translocator protein = Translocator protein (Homo sapiens, UniProt P30536); test: as §1, with “TSPO” for “HTR2A”
[9] = biological target: 5-hydroxytryptamine receptor 2B (Homo sapiens, UniProt P41595); test: as §1, with “HTR2B” for “HTR2A”
[10] = biological target: 5-hydroxytryptamine receptor 5A (Homo sapiens, UniProt P47898); test: as §1, with “HTR5A” for “HTR2A”
[11] = biological target: T5, Alpha-2B adrenergic receptor (Homo sapiens, UniProt P18089); test: as §1, with “ADRA2B” for “HTR2A”
T5 sequence (P18089 whole entry): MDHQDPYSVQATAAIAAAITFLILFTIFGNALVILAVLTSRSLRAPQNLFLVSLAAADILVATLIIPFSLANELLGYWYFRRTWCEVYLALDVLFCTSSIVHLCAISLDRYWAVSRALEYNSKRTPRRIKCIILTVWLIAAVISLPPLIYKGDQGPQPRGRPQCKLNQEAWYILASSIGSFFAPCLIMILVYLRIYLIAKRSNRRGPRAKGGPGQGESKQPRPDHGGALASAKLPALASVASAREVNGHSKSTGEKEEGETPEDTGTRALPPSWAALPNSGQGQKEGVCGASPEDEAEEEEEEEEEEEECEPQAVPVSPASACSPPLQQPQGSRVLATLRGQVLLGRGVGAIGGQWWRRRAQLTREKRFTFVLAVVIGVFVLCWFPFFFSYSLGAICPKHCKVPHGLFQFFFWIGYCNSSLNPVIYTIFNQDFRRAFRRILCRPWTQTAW

[12] = biological target: Sigma intracellular receptor 2 (Homo sapiens, UniProt Q5BJF2); test: as §1, with “TMEM97” for “HTR2A”
[13] = biological target: T6, Alpha-1B adrenergic receptor (Homo sapiens, UniProt P35368); test: as §1, with “ADRA1B” for “HTR2A”
T6 sequence (P35368 whole entry): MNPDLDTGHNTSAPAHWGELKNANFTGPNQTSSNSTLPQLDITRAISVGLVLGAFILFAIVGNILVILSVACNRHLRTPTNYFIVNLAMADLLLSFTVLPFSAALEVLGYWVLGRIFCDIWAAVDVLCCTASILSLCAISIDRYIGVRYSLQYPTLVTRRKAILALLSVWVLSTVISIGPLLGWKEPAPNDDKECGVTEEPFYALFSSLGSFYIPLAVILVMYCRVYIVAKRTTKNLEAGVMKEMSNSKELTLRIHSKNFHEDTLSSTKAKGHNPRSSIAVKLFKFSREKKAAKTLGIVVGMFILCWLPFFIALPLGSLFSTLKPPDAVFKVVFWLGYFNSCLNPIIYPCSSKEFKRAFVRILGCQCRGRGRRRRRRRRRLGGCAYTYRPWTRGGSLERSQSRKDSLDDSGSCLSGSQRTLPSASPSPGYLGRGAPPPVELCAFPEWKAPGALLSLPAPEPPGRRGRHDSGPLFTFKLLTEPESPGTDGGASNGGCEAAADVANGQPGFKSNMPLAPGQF

[14] = biological target: 5-hydroxytryptamine receptor 1D (Homo sapiens, UniProt P28221); test: as §1, with “HTR1D” for “HTR2A”
5-hydroxytryptamine receptor 1D, sequence (P28221 whole entry): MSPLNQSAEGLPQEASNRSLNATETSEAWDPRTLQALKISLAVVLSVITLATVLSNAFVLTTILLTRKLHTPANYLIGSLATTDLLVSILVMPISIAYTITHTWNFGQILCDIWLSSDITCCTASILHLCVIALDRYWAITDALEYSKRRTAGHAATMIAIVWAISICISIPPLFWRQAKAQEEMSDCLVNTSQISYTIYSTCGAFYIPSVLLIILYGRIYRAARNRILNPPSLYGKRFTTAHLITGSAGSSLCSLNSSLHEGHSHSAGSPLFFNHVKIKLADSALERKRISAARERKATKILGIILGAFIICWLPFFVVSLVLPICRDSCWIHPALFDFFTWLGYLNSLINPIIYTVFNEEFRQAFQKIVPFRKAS

Sodium-dependent dopamine transporter, sequence (Q01959 whole entry): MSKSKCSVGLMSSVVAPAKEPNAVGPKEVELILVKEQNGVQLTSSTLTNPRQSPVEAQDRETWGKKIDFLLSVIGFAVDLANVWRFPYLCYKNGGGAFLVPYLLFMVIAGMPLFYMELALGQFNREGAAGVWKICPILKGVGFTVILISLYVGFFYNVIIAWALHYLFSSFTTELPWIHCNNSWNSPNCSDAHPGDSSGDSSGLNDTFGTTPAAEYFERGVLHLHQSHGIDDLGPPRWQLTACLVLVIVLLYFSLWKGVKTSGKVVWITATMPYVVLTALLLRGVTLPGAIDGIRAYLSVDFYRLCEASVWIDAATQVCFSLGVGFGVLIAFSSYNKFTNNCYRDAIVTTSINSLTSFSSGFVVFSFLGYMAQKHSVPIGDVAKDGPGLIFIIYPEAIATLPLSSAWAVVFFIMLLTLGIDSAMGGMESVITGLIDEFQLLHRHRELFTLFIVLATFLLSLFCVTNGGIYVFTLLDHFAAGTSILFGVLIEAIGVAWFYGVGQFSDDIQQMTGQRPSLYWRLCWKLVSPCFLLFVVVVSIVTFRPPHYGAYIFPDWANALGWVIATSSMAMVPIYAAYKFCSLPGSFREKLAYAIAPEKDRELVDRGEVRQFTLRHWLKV
Sigma non-opioid intracellular receptor 1, sequence (Q99720 whole entry): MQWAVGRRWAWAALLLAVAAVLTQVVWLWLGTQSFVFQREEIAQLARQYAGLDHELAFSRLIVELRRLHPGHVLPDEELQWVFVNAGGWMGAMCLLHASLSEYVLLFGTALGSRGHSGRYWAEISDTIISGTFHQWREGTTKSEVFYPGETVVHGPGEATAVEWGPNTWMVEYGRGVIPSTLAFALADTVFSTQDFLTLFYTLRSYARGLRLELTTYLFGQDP
Kappa-type opioid receptor, sequence (P41145 whole entry): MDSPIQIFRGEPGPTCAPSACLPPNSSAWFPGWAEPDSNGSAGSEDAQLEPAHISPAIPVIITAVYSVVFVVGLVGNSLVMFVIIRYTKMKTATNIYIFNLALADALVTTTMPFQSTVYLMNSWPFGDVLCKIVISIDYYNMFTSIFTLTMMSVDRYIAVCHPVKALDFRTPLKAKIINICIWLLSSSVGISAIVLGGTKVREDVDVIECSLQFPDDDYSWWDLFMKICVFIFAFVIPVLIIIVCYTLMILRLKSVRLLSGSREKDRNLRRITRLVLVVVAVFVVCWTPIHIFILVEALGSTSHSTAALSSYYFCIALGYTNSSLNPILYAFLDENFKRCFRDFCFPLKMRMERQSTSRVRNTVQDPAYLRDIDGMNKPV
Mu-type opioid receptor, sequence (P35372 whole entry): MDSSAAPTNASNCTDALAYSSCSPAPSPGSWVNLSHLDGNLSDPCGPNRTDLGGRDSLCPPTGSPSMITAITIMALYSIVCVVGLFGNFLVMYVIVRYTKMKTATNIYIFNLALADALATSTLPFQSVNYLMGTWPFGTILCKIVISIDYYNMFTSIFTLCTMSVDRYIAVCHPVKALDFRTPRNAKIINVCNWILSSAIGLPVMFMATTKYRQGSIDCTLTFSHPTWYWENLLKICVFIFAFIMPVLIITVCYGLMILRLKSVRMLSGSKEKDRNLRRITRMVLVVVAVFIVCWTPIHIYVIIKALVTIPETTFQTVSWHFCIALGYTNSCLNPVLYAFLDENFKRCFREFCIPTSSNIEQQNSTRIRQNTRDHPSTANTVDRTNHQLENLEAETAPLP
5-hydroxytryptamine receptor 2A, sequence (P28223 whole entry): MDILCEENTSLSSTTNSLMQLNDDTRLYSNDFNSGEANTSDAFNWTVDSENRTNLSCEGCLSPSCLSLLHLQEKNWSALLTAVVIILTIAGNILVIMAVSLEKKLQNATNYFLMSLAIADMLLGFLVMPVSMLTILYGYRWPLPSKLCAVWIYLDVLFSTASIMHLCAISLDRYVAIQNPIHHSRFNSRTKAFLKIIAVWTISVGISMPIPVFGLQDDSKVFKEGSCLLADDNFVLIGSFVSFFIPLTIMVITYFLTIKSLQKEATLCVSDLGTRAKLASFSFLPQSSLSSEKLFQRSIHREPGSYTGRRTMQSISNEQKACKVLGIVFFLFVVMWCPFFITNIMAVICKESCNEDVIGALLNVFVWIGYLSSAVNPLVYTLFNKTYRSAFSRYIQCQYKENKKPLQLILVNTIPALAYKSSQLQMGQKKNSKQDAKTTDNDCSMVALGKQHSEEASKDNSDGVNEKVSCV
D(3) dopamine receptor, sequence (P35462 whole entry): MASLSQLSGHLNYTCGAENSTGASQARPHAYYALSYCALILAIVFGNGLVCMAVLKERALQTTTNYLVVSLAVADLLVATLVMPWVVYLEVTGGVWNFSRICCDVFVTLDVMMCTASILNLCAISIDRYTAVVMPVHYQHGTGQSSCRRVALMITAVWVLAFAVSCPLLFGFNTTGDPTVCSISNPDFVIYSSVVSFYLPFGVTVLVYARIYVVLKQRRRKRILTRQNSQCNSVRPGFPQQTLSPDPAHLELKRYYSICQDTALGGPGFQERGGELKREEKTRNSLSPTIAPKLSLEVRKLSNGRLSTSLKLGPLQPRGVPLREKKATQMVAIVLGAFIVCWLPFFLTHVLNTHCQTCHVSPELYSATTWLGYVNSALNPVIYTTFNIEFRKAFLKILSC
Histamine H1 receptor, sequence (P35367 whole entry): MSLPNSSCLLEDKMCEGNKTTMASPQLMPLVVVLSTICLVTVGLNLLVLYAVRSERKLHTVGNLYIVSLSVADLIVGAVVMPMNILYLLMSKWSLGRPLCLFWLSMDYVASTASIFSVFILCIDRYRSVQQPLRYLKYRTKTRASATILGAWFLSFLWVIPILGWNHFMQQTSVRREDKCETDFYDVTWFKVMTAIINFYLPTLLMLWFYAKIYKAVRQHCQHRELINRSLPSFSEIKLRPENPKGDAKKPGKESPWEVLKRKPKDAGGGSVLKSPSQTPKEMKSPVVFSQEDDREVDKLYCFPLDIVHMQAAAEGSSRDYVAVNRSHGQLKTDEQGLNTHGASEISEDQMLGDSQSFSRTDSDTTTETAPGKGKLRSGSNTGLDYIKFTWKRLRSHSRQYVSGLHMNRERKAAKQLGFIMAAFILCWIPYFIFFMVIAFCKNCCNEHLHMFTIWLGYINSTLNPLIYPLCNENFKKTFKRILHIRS
Sigma intracellular receptor 2, sequence (Q5BJF2 whole entry): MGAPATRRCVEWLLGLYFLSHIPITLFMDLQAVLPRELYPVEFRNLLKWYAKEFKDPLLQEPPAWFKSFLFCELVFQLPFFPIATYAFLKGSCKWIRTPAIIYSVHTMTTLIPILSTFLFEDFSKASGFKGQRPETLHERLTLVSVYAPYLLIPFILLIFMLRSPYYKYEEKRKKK
5-hydroxytryptamine receptor 2B, sequence (P41595 whole entry): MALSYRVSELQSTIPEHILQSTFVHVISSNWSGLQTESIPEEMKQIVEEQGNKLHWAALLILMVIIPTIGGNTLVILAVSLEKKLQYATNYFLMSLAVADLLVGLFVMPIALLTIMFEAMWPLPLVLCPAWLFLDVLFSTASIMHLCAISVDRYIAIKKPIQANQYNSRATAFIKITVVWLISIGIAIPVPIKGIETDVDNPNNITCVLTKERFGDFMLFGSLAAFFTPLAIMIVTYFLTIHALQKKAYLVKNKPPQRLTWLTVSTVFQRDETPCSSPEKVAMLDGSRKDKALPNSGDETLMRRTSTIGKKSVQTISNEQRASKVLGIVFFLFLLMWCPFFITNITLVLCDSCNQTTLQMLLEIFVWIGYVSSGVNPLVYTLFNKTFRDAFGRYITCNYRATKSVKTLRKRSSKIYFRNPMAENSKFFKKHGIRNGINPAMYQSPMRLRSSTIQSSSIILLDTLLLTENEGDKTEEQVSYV
Translocator protein, sequence (P30536 whole entry): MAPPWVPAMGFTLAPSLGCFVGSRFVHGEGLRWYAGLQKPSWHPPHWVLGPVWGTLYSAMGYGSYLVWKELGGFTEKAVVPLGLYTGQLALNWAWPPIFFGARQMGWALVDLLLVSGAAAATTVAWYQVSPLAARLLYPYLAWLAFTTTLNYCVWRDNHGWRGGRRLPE
5-hydroxytryptamine receptor 5A, sequence (P47898 whole entry): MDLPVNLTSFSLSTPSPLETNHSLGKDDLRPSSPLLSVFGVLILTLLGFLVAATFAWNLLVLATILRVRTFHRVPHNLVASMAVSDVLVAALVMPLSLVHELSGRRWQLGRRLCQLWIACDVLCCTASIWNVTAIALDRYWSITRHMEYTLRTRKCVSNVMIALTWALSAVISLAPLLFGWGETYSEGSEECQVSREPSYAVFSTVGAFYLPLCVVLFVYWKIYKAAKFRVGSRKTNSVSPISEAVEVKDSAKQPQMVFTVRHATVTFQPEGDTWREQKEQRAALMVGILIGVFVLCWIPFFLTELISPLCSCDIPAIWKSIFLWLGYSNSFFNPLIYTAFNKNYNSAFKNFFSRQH

Ki [1]: 4610 nM
Ki [2]: 488 nM
Ki (Histamine H1 receptor): > 10000 nM
SMILES: O=C(O)C1CN(Cc2ccc(OCc3ccc(Cl)c(Cl)c3)cc2)C1

Ki (Mu-type opioid receptor): > 10000 nM
Ki [5]: 5230 nM
Ki (D(4) dopamine receptor): > 10000 nM
SMILES: O=C1N/C(=N/c2ccccc2F)S/C1=C\c1ccc(C(=O)O)cc1

Ki (D(3) dopamine receptor): 270 nM
Ki (Mu-type opioid receptor): 6270 nM
Ki (D(4) dopamine receptor): 545 nM
SMILES: CCc1cc2c(c(CC)n1)CCC(=O)N2Cc1ccc(-c2ccccc2-c2nnn[nH]2)cc1

Ki [3]: 2120 nM
Ki (D(4) dopamine receptor): 199 nM
Ki [2]: 2260 nM
SMILES: c1ccc(N2CCN(Cc3nc4ccccc4[nH]3)CC2)nc1

Ki [3]: 2380 nM
SMILES: COc1cccc(-c2c(C)n(Cc3c(F)cccc3C(F)(F)F)c(=O)n(C[C@H](NCCCC(=O)O)c3ccccc3)c2=O)c1F [ELAGOLIX SODIUM]

Ki (Mu-type opioid receptor): > 10000 nM
Ki [1]: 3880 nM
Ki (Histamine H1 receptor): 1980 nM
SMILES: C/C(=N\NC(=O)[C@@H]1C(=O)NC[C@H]1c1ccccc1)c1cccc(Br)c1

Ki (D(3) dopamine receptor): 1190 nM
Ki (Histamine H1 receptor): 1610 nM
SMILES: CSc1ccc(C(=O)N[C@@H]2CCCC[C@@H]2NC(=O)CNC(=O)c2cc(C(F)(F)F)ccc2NC(=O)NC(C)C)cc1

Ki [5]: > 10000 nM
Ki (Histamine H1 receptor): 5550 nM
SMILES: Cc1nnn(-c2ccc(-c3ccc(C4(C(=O)O)CC4)cc3)cc2)c1NC(=O)O[C@H](C)c1ccccc1

The next lines start with the compound.

SMILES: C[C@H](NC[C@H](O)CP(=O)(O)CC1CCCCC1)c1ccc(Cl)c(Cl)c1
Ki (Mu-type opioid receptor): 1280 nM
Ki [3]: 1110 nM
Ki [4]: 520 nM

SMILES: CNc1nc(NCc2ccc(NS(C)(=O)=O)cc2Cl)cc(-c2ccccn2)n1
Ki (D(3) dopamine receptor): 1020 nM
Ki [6]: 1720 nM
Ki [1]: 2120 nM
Ki [7]: 803 nM
Ki [3]: 998 nM
Ki [8]: 2220 nM
Ki (Translocator protein): 1660 nM
Ki [9]: 647 nM
Ki [2]: 365 nM
Ki [10]: 2110 nM

SMILES: NC[C@H](O)c1ccc(O)c(O)c1
Ki [11]: 235 nM
Ki [6]: 386 nM

SMILES: Cc1ccccc1N1CCN(S(=O)(=O)C[C@]23CC[C@H](C[C@@H]2NC(=O)[C@@H](N)CCS(C)(=O)=O)C3(C)C)CC1
Ki [3]: 4.03 nM
Ki [12]: 309 nM
Ki [2]: 70.1 nM

SMILES: CCCCN(CCCC)C(=O)CN1C[C@@H](c2ccc3c(c2)OCO3)[C@H](C(=O)O)[C@H]1c1ccc(OC)cc1
Ki (Translocator protein): 184 nM
Ki (D(4) dopamine receptor): 1910 nM
Ki [2]: 2810 nM

SMILES: CN(C)C(=O)C(CCN1CCC(O)(c2ccc(Cl)cc2)CC1)(c1ccccc1)c1ccccc1 [LOPERAMIDE HYDROCHLORIDE]
Ki [12]: 36.7 nM
Ki (D(4) dopamine receptor): 1460 nM
Ki [9]: 362 nM
Ki [2]: 169 nM
Ki [13]: 3690 nM
Ki [14]: 2600 nM
Ki [4]: 1410 nM

SMILES: O=C(Cc1ccc(Cl)c(Cl)c1)N1CCCC[C@H]1CN1CCCC1
Ki [3]: 0.591 nM
Ki [12]: 37 nM
Ki (D(4) dopamine receptor): 2030 nM
Ki [2]: 11.7 nM
Ki [4]: 4860 nM
